Tested on: human keratinocytes
Experiment: Protection of cells against UV-B rays (cell DNA, LDH and PGE2 release)
Type: cell-based
Settings: 0.03 % w/v, UVB 50 mJ/cm^2, control with UVB = 100%, without UVB = 0%
Method: The influence of UVB rays on keratinocytes was determined in vitro through the release of cytoplasmatic enzymes, such as LDH (lactate dehydrogenase) for example, which runs parallel to the cell damage and the formation of PGE2. To carry out the test, a keratinocyte culture was mixed with foetal calf serum and inoculated with the test substances after storage at 37° C. in an atmosphere containing 5% CO2. After incubation for 36 h at 37° C. and a CO2 level of 5% by vol., the nutrient medium was replaced by an electrolyte solution and the fibroblasts were damaged with a particular dose of UVB (50 mJ/cm^2; lamp: Duke GL40E). The quantity of keratinocytes was determined after trypsination via a cell counter while the LDH concentration was enzymatically determined.

`CC(=O)Oc1ccccc1C(=O)O` [acetylsalicylic acid] showed an LDH released of 0% and a PGE2 released of 0%.

— US20060165631A1, “Use of oligoglucosamines in cosmetic or dermatological preparations” (priority 2003, published 2006)
